Assay results from PubChem BioAssay (NCI).
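Values below derive from 48-hour exposures of cells grown in 96-well plates, with endpoints linearly interpolated between the two concentrations bracketing the appropriate inhibition level. At the GI50, growth is halved. At the TGI there is no net growth.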

Legend:
Assay in all cases: DTP human tumour cell line panel, 48 h
CCRF-CEM leukemia = test system: CCRF-CEM leukemia
MALME-3M melanoma = test system: MALME-3M melanoma
NCI-H460 lung = test system: NCI-H460 lung
SF-268 CNS = test system: SF-268 CNS
SK-MEL-28 melanoma = test system: SK-MEL-28 melanoma
HT29 colon = test system: HT29 colon
SW-620 colon = test system: SW-620 colon
U251 CNS = test system: U251 CNS
NCI-H522 lung = test system: NCI-H522 lung
UACC-62 melanoma = test system: UACC-62 melanoma

Row | SMILES | GI50 (CCRF-CEM leukemia) | TGI (CCRF-CEM leukemia) | GI50 (MALME-3M melanoma) | TGI (MALME-3M melanoma) | GI50 (NCI-H460 lung) | TGI (NCI-H460 lung) | GI50 (SF-268 CNS) | TGI (SF-268 CNS) | GI50 (SK-MEL-28 melanoma) | TGI (SK-MEL-28 melanoma) | GI50 (HT29 colon) | TGI (HT29 colon) | GI50 (SW-620 colon) | TGI (SW-620 colon) | GI50 (U251 CNS) | TGI (U251 CNS) | GI50 (NCI-H522 lung) | TGI (NCI-H522 lung) | GI50 (UACC-62 melanoma) | TGI (UACC-62 melanoma)
1 | COCCOC(=O)C1=C(C)NC2=C(C(=O)CC(c3ccccc3OC)C2)C1c1cccc(O)c1 (stereo not given) | 11.3 µM | 83.6 µM | 13.9 µM | 47.6 µM | 15.5 µM | 42.9 µM | 15.8 µM | 53.4 µM | 12.6 µM | 50.6 µM | 5.38 µM | 25.3 µM | 12.5 µM | 33.5 µM | 16.3 µM | > 72.2 µM | 6.47 µM | 33.6 µM | 4.51 µM | 29.3 µM
2 | CCC(Sc1nnc2c3ccccc3n(CC)c2n1)C(=O)Nc1ccccc1OC (stereo not given) | > 94.9 µM | > 100 µM | > 100 µM | > 100 µM | > 100 µM | > 100 µM | > 100 µM | > 100 µM | > 100 µM | > 100 µM | > 100 µM | > 100 µM | > 100 µM | > 100 µM | > 100 µM | > 100 µM | > 100 µM | > 100 µM | > 100 µM | > 100 µM
3 | O=C1OC(c2ccc(O)c(-c3ccccc3)c2)(c2ccc(O)c(-c3ccccc3)c2)c2c(Cl)c(Cl)c(Cl)c(Cl)c21 | – | > 100 µM | – | > 100 µM | – | > 100 µM | – | > 100 µM | – | > 100 µM | – | > 100 µM | – | > 100 µM | – | > 100 µM | – | > 100 µM | – | > 100 µM
4 | Cc1ccc(NC(=O)/C(CC(=O)c2c[n+](=O)c3ccccc3n2O)=N\NC(=O)C[n+]2ccccc2)cc1 | – | > 100 µM | – | > 100 µM | – | > 100 µM | – | > 100 µM | – | > 100 µM | – | > 100 µM | – | > 100 µM | – | > 100 µM | – | > 100 µM | – | > 100 µM
5 | O=C(O)C1C2CC3C(OC(=O)C31)C2Br (stereo not given) | – | > 100 µM | – | > 100 µM | – | > 100 µM | – | > 100 µM | – | > 100 µM | – | > 100 µM | – | > 100 µM | – | > 100 µM | – | > 100 µM | – | > 100 µM
6 | CCc1c2c(nc3cc4c(cc13)OCO4)-c1cc3c(c(=O)n1C2)COC(=O)[C@@]3(CC)OC(=O)CN | < 0.01 µM | < 0.01 µM | < 0.015 µM | 1.43 µM | < 0.01 µM | < 0.01 µM | < 0.01 µM | – | 0.101 µM | – | < 0.01 µM | 3.83 µM | < 0.013 µM | – | < 0.01 µM | 0.124 µM | < 0.01 µM | 0.239 µM | < 0.022 µM | –
7 | CC(c1ccc(Br)cc1)C(C(=O)O)C(=O)O (stereo not given) | – | > 100 µM | – | > 100 µM | – | > 100 µM | – | > 100 µM | – | > 100 µM | – | > 100 µM | – | > 100 µM | – | > 100 µM | – | > 100 µM | – | > 100 µM
8 | CCCCCCCCCCCCCCCc1cc(O)ccc1N | 0.0518 µM | – | > 62.1 µM | > 100 µM | > 100 µM | > 100 µM | 4.33 µM | 23.9 µM | > 67.3 µM | > 100 µM | > 100 µM | > 100 µM | > 100 µM | > 100 µM | > 80.2 µM | > 100 µM | 0.127 µM | 0.452 µM | 13.2 µM | > 100 µM
9 | CC(=O)N1CC2Nc3ccccc3C2CC1CO (stereo not given) | – | > 100 µM | – | > 100 µM | – | > 100 µM | – | > 100 µM | – | > 100 µM | – | > 100 µM | – | > 100 µM | – | > 100 µM | – | > 100 µM | – | > 100 µM
10 | O=C1c2ccccc2C(=O)N1c1ccc(S(=O)(=O)Nc2ncccn2)cc1 | 9.79 µM | > 100 µM | > 100 µM | > 100 µM | > 100 µM | > 100 µM | > 100 µM | > 100 µM | > 100 µM | > 100 µM | > 100 µM | > 100 µM | > 100 µM | > 100 µM | > 100 µM | > 100 µM | > 100 µM | > 100 µM | > 100 µM | > 100 µM
11 | O=C1/C(=C/c2ccccc2Cl)N=C(c2ccccc2)N1Cc1ccco1 | 5.35 µM | > 100 µM | 16.6 µM | 36 µM | 42.6 µM | > 100 µM | 50.2 µM | > 100 µM | 44.7 µM | > 100 µM | 36.4 µM | > 100 µM | 89.6 µM | > 100 µM | 57.8 µM | > 100 µM | 26.2 µM | 66.7 µM | 12.6 µM | 34.7 µM
12 | CCOC(=O)CC1(O)C=CC(=O)C=C1 | 0.757 µg/mL | 7.02 µg/mL | 0.914 µg/mL | 2.89 µg/mL | 1.12 µg/mL | 3.21 µg/mL | 0.57 µg/mL | 1.92 µg/mL | 1.04 µg/mL | 2.89 µg/mL | 2.17 µg/mL | 4.46 µg/mL | 1.68 µg/mL | 4.39 µg/mL | 0.477 µg/mL | 1.45 µg/mL | 0.515 µg/mL | 1.31 µg/mL | 0.485 µg/mL | 1.7 µg/mL
13 | N#Cc1ccccc1C#C/C=C\C#Cc1ccc(OCCCNC(=O)c2cc3ccccc3[nH]2)cc1 | 4.6 µM | 44.3 µM | 14 µM | 34.8 µM | 33.9 µM | > 100 µM | 30.6 µM | > 100 µM | 32 µM | > 100 µM | 30.9 µM | > 100 µM | 30.2 µM | > 100 µM | 10.7 µM | 22.5 µM | 13.9 µM | 32.3 µM | 13.7 µM | 28.4 µM
14 | COc1ccc2c(c1)c(C1(c3cn(C)c4ccc(OC)cc34)C(=O)Nc3ccc(F)cc31)cn2C | 4.56 µM | > 100 µM | 6.52 µM | 89.5 µM | 3.65 µM | 14.6 µM | 5.7 µM | > 100 µM | 5.3 µM | 25.5 µM | 3.52 µM | 23 µM | 7.48 µM | > 100 µM | 4.24 µM | > 100 µM | 2.67 µM | 7.75 µM | 7.42 µM | 56.2 µM
